Experimental data from publication PMC7751257 (mBio, 2020).
Read-outs that look alike come from different tables or passages of the source. Bridge positions count the residues as written; N and C are the ends. Square brackets hold non-standard residues; d marks the D form. Peptide text beside a SMILES is read from it. S5 = C=CCCC[C@](C)(N)C(=O)O

Legend:
[1] = tested on: pseudovirus NL4-3ΔEnv-NanoLuc/SARS-CoV-2; details: 24 h
[2] = tested on: pseudovirus NL4-3.Luc.R-E-/VSV-G; details: 24 h
[3] = tested on: pseudovirus NL4-3.Luc.R-E-/VSV-G; details: 48 h
[4] = α-Helical propensity by CD spectroscopy; assay type: physicochemical; details: 0.125 mg/ml peptide in 10 mM PBS, 25°C, 185 to 260 nm, calculated with CDNN software
[5] = tested on: pseudovirus NL4-3ΔEnv-NanoLuc/SARS-CoV-2; details: 48 h
[6] = tested on: SARS-CoV-2 (US_WA-1/2020); assay type: cell-based
[7] = Proteolytic stability in human plasma; details: pooled human plasma, pH 7.4, 2 μM, 37°C, time points 0, 10, 30, 60, 120 min, LC-MS/MS, duplicate
[8] = reported for the control stapled peptide; cited from earlier work

SMILES	IC50 [1] [µM]	IC50 [2] [µM]	IC50 [3] [µM]	% α-Helicity (185-260 nm) [4] [%]	IC50 [5] [nM]	IC100 [6] [µM]	half-life (T1/2) in human plasma [7] [min]	% helicity [8] [%]
CC[C@H](C)[C@H](NC(=O)[C@@H](NC(C)=O)[C@@H](C)O)C(=O)N[C@@H](CCC(=O)O)C(=O)N[C@@H](CCC(=O)O)C(=O)N[C@@H](CCC(N)=O)C(=O)N[C@@H](C)C(=O)N[C@@H](CCCCN)C(=O)N[C@H](C(=O)N[C@@]1(C)CCC/C=C\CCC[C@@](C)(C(=O)N[C@@H](CC(N)=O)C(=O)N[C@@H](Cc2c[nH]cn2)C(=O)N[C@@H](CCC(=O)O)C(=O)N[C@@H](C)C(=O)N[C@@H](CCC(=O)O)C(=O)N[C@@H](CC(=O)O)C(=O)N[C@@H](CC(C)C)C(=O)N[C@@H](Cc2ccccc2)C(=O)N[C@@H](Cc2ccc(O)cc2)C(=O)N[C@@H](CCC(N)=O)C(=O)N[C@@]2(C)CCC/C=C\CCC[C@@](C)(C(=O)N[C@@H](Cc3c[nH]c4ccccc34)C(=O)N[C@@H](CC(N)=O)C(N)=O)NC(=O)[C@H](C)NC(=O)[C@H](CC(C)C)NC(=O)[C@H](CO)NC2=O)NC(=O)[C@H](CCCCN)NC(=O)[C@H](CC(=O)O)NC(=O)[C@H](CC(C)C)NC1=O)[C@@H](C)O [NYBSP-1] (Ac-TIEEQAKT[S5]LDK[S5]NHEAEDLFYQ[S5]SLA[S5]WN-NH2; staple (Z) 9-13, 24-28)	4.1 ± 0.26	> 27.5	> 27.5	94	2200 ± 140	17.2		
CC(C)[N+](C)(CCOC(=O)C1c2ccccc2Oc2ccccc21)C(C)C [Propantheline bromide, propantheline bromide]							8	
CC(=O)N[C@@H](CC(=O)O)C(=O)N[C@@H](CC(N)=O)C(=O)N[C@@H](CCC(=O)O)C(=O)N[C@@]1(C)CCC/C=C\CCC[C@@](C)(C(=O)N[C@@H](Cc2ccc(O)cc2)C(=O)N[C@@H](Cc2c[nH]cn2)C(=O)N[C@@H](CC(C)C)C(=O)N[C@@]2(C)CCC/C=C\CCC[C@@](C)(C(=O)N[C@H](C(N)=O)C(C)C)NC(=O)[C@H](CC(N)=O)NC(=O)[C@H](Cc3ccccc3)NC(=O)[C@H](Cc3ccccc3)NC2=O)NC(=O)[C@H](Cc2ccccc2)NC(=O)[C@H](Cc2c[nH]c3ccccc23)NC(=O)[C@H](CCC(N)=O)NC1=O [StRIP16] (Ac-DNE[S5]QWF[S5]YHL[S5]FFN[S5]V-NH2; staple (Z) 4-8, 12-16)	> 43.5	> 43.5	> 43.5		> 43500			38
